Experimental data taken from publication PMC5597618, “Identification and characterization of the novel reversible and selective cathepsin X inhibitors” (Scientific Reports, 2017).
Read-outs that look alike come from different tables or passages of the source.

Key:
[1] = target: T1, Cathepsin B (exopeptidase a.) (Homo sapiens, UniProt P07858); assay: Ki against cathepsin B exopeptidase activity (Abz-GIVRAK(Dnp)-OH); assay type: biochemical; conditions: SigmaPlot at 3 different substrate concentrations; pH 5.0
T1 construct: made in house; host or cells: E. coli
Description: (§1) Recombinant or native human cathepsins were used: recombinant cathepsin X and cathepsin S were expressed in Pichia pastoris, recombinant cathepsins B and L in E. coli, [43], native cathepsin H was isolated from human liver. Assay buffers for determining activities of cathepsins X and L consisted of 100 mM sodium acetate buffer, pH 5.5, for cathepsins H, S and B (endopeptidase activity) of 100 mM phosphate buffer pH 6.8, 6.5 and 6.0, respectively and for cathepsin B (exopeptidase activity) of 60 mM acetate buffer pH 5.0. Each assay buffer contained 0.01% Triton X-100 to prevent false positive inhibition due to aggregation of compounds[45], 5 mM cysteine, 1.5 mM EDTA and 0.1% PEG 8000. Enzymes were activated at 37 °C for 5 min before the assays.
(§2) Ki was determined by measuring the initial rate of hydrolysis at three different substrate concentrations (Supplementary Table S2) in the presence of seven different compound concentrations (0, 20, 40, 60, 80, 100 and 200 μM). 90 μL of the activated cathepsin was added to a black 96-well plate with 5 μL of the substrate and 5 μL of the compound. Formation of the fluorescent degradation product was monitored continuously at 460 nm ± 10 nm with excitation at 380 nm ± 20 nm (for AMC substrates) and, as noted above for Abz substrates, at 37 °C. All measurements were performed twice and in duplicate. The resulting data were analyzed by non-linear regression using the software SigmaPlot®, Enzyme Kinetics Module™ 1.3 and were fitted to the equation v = v max [S]/([S] (1 + [I]/αK i ) + K m (1 + [I]/K i )) (first group of compounds). For Ki determination against cathepsin X for the compounds from the second group, progress curves in the absence and presence of each putative inhibitor were fitted to the reaction mechanism presented in Fig. 3b. In this case the resulting data as well as reactivation curves were fitted to the equation system presented in Fig. 3c using ENZO application. For calculation of kinetic parameters from reaction progress curves the fluorescence coefficient for conversion of arbitrary fluorescence units to concentration was first determined. The fluorescence coefficient was calculated as the slope from the plot of initial substrate concentration vs. height of the plateau of the progress curve after complete hydrolysis of increasing concentrations of substrate, using linear regression.
(§3) Supplementary Table S2. Substrates used for the various cathepsins and their concentrations […]
(§4) Enzyme Substrate Concentration (µM) Reference/Company cathepsin X Abz-FEK(Dnp)-OH 3.25, 6.5, 13 Puzer et al.3 cathepsin B - endopept. Z-RR-AMC 60, 180, 360 Bachem cathepsin B - exopept. Abz-GIVRAK(Dnp)-OH 1, 3, 6 Bachem cathepsin S Z-VVR-AMC 0.5, 1, 1.5 Biomol cathepsin L Z-FR-AMC 0.5, 1, 4 Bachem cathepsin H Z-R-AMC 20, 80, 160 Biomol […]

Cathepsin L = target: T2, Cathepsin L (Homo sapiens, UniProt P07711); assay: Ki against cathepsin L (Z-FR-AMC); assay type: biochemical; conditions: SigmaPlot at 3 different substrate concentrations; pH 5.5
T2 construct: made in house; host or cells: E. coli
Description: as §1, §2, §3, §4

Cathepsin S = target: T3, Cathepsin S (Homo sapiens, UniProt P25774); assay: Ki against cathepsin S (Z-VVR-AMC); assay type: biochemical; conditions: SigmaPlot at 3 different substrate concentrations; pH 6.5
T3 construct: made in house; host or cells: Pichia pastoris
Description: as §1, §2, §3, §4

[2] = target: T4, cathepsin X in PC-12 cell lysates (Rattus norvegicus, UniProt Q9R1T3); assay: Cathepsin X activity in PC-12 cell lysates; assay type: cell-based; conditions: 10 μM
T4 construct: endogenous in cells; host or cells: PC-12
Description: To detect cathepsin X activity in cell lysates, 95 μL of activated cell lysates (0.2 mg/mL total protein in assay buffer) were added to a black 96-well plate containing 5 μL of the substrate. The further procedure was the same as above. In some experiments lysates of non-treated cells were pre-incubated with 10 μM of compounds for 30 minutes and then activity was measured as described above.
For testing the enzyme activity in cell lysates, cells were treated with 10 μM of compounds. After 24 hours lysates were prepared in 50 mM Na acetate buffer pH 5.5 with 1 mM EDTA, 100 mM NaCl and 0.25% Triton X-100. Total protein concentration was determined by DC Protein Assay (Bio Rad) according to the instructions.

PC-12 cells = assay: Determination of F-actin content of cells (phalloidin-TRITC fluorescence microscopy); assay type: cell-based, rat; conditions: 10 µM, 2 h
Description: For the fluorescence staining of F-actin, PC-12 cells were cultured on glass coverslips coated with poly-L-lysine (4 × 10^4/ml). Next day, cells were treated with compounds (10 µM) in serum-free medium for 2 h. The cells were then fixed in 5% formalin (w/v) in PBS (pH 7.4) for 5 min and permeabilized with 0.1% Triton X-100 in PBS for 3 min. After washing with PBS, cells were incubated with phalloidin-TRITC (500 ng/mL) (Sigma) in 20 mM TrisHCl (pH 7.4) at 37 °C for 30 min. After additional washing with PBS, the Prolong Antifade kit was used for mounting the coverslips on glass slides. Fluorescence microscopy was performed using an Olympus IX 81 motorized inverted microscope.

cathepsin X = cathepsin X (Homo sapiens, UniProt Q9UBR2); assay: Determination of relative inhibition of cathepsin X; assay type: biochemical; design: made in house; host or cells: Pichia pastoris
Description: as §1
Abz-FEK(Dnp)-OH was used as cathepsin X specific substrate in activity assays. 90 μL of activated cathepsin X (20 nM) was added to a black 96-well plate with 5 μL of substrate (3.25 μM final concentration) and 5 μL of the compound (50 μM final concentration). The reaction was monitored continuously at 420 nm ± 10 nm with excitation at 320 nm ± 20 nm and at 37 °C. Relative inhibition (%) was calculated with the equation (1 − v i/v 0) × 100, where v i is reaction velocity in the presence of the compound and v 0 is reaction velocity without the compound.

Sequence of cathepsin X (Q9UBR2 62-303): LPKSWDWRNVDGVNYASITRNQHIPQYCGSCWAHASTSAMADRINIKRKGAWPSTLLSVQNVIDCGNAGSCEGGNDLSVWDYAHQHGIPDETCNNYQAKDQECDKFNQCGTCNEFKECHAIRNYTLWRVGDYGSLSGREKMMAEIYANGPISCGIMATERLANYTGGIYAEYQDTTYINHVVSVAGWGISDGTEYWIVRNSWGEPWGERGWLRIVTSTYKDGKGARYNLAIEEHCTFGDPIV
T2 sequence (P07711 114-333): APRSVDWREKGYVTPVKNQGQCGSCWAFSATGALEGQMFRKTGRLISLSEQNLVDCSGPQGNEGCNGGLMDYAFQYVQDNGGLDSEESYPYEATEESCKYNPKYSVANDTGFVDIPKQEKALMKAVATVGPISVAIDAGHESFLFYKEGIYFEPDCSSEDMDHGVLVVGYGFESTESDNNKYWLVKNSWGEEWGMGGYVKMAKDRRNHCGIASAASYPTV
T4 sequence (Q9R1T3 64-306): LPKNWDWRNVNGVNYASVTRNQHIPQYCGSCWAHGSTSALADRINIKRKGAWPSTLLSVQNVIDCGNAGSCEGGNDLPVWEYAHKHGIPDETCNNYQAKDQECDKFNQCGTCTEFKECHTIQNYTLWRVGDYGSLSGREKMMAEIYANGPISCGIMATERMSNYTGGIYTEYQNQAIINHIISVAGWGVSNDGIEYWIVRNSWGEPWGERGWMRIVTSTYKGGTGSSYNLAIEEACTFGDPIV
T3 sequence (P25774 115-331): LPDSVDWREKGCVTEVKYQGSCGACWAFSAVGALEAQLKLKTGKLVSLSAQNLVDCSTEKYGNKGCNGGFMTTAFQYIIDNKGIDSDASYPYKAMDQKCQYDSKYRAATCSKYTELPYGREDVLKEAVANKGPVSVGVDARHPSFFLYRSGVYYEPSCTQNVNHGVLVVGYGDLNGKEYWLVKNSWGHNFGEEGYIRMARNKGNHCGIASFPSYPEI

- Ki [1]: 306 ± 38.1 µM
- Ki Cathepsin L (Cathepsin L): n.i.
- Ki Cathepsin S (Cathepsin S): n.i.
- inhibition of cathepsin X activity in PC-12 cell lysates [2]: most potent
- inhibition at 50 µM (cathepsin X; screening at 50 μM compound, read-out: relative inhibition of cathepsin X): > 70%
- inhibition at 50 µM (cathepsin X; second group, 50 μM compound, 1 h preincubation, read-out: % inhibition (1 h preincubation)): 75%
Structure (SMILES): CC(C)n1cnnc1SCC(=O)c1ccc2c(c1)OCCO2 [Compound 22, 1-(2,3-Dihydrobenzo[b][1,4]dioxin-6-yl)-2-((4-isopropyl-4H-1,2,4-triazol-3-yl)thio)ethan-1-one]
- actin polymerization (PC-12 cells): increased actin polymerization
